Key:
[1] = target: Mushroom tyrosinase (Agaricus bisporus) (UniProt O42713+Q00024+C7FF04+C7FF05); conditions: dose 50.0 µM
Description: Inhibition of mushroom tyrosinase using PNP-G as substrate at 50 nM relative to control

Mushroom tyrosinase [2] = target: T1, Mushroom tyrosinase (Agaricus bisporus, UniProt O42713+Q00024+C7FF04+C7FF05); assay: Inhibition of mushroom tyrosinase using […] as substrate
Mushroom tyrosinase [3] = target: T1, Mushroom tyrosinase; assay: Competitive inhibition of mushroom tyrosinase using […] as substrate by Lineweaver-Burk plot analysis

SMILES	inhibition [1] [%]	Ki (Mushroom tyrosinase [2]) [nM]	Ki (Mushroom tyrosinase [3]) [nM]
CCn1c(Oc2ccc(C3C(C#N)=C(N)Oc4[nH]c(=S)[nH]c(=O)c43)cc2)nc2c1c(=O)n(C)c(=O)n2C (stereo not drawn)	32.7		
CCn1c(Oc2ccc(-c3nc(-c4ccccc4)c(-c4ccccc4)[nH]3)cc2)nc2c1c(=O)n(C)c(=O)n2C	> 40		
CCn1c(N/N=C/c2nc3ccccc3[nH]2)nc2c1c(=O)n(C)c(=O)n2C	27		
CCn1c(Oc2ccc(C3C4=C(CC(C)(C)CC4=O)NC4=C3C(=O)CC(C)(C)C4)cc2)nc2c1c(=O)n(C)c(=O)n2C	> 40		
CCn1c(Oc2ccc(/C=N/N=C3/C(=O)Nc4ccccc43)cc2)nc2c1c(=O)n(C)c(=O)n2C	> 40		
CCn1c(Oc2ccc(/C=N\Nc3c(F)c(F)c(F)c(F)c3F)cc2)nc2c1c(=O)n(C)c(=O)n2C	> 40		
CCn1c(NN)nc2c1c(=O)n(C)c(=O)n2C	> 40		
CCn1c(Oc2ccc(C=C3C(=O)NC(=S)NC3=O)cc2)nc2c1c(=O)n(C)c(=O)n2C	30.2		
CCn1c(Oc2ccc(/C=N/Nc3ccccn3)cc2)nc2c1c(=O)n(C)c(=O)n2C	> 40		

Further lines, results first:

inhibition [1] [%]	Ki (Mushroom tyrosinase [2]) [nM]	Ki (Mushroom tyrosinase [3]) [nM]	SMILES
> 40			CCn1c(Oc2ccc(C=C(C#N)C#N)cc2)nc2c1c(=O)n(C)c(=O)n2C
29.4			CCn1c(Oc2ccc(/C=N/N=C3/NC(=O)CS3)cc2)nc2c1c(=O)n(C)c(=O)n2C
> 40	670	670	CCn1c(Oc2ccc(/C=N/NC(N)=S)cc2)nc2c1c(=O)n(C)c(=O)n2C
33.6			CCn1c(Oc2ccc(-c3nnc(NC(C)=O)s3)cc2)nc2c1c(=O)n(C)c(=O)n2C
40.3			CCn1c(Oc2ccc(/C=N\NC(=O)c3cccnc3)cc2)nc2c1c(=O)n(C)c(=O)n2C
> 40			CCn1c(Oc2ccc(/C=N/N)cc2)nc2c1c(=O)n(C)c(=O)n2C
29.5			CCn1c(Oc2ccc(C=O)cc2)nc2c1c(=O)n(C)c(=O)n2C
